The experiment addresses α-glucosidase (Saccharomyces cerevisiae, UniProt P53341). Put plainly: α-glucosidase inhibitory activity. The format is biochemical.

In publication PMC10117287 (RSC Advances, 2023) one finds inhibition data, which are given here for one molecule.

Chain of α-glucosidase (P53341 whole entry): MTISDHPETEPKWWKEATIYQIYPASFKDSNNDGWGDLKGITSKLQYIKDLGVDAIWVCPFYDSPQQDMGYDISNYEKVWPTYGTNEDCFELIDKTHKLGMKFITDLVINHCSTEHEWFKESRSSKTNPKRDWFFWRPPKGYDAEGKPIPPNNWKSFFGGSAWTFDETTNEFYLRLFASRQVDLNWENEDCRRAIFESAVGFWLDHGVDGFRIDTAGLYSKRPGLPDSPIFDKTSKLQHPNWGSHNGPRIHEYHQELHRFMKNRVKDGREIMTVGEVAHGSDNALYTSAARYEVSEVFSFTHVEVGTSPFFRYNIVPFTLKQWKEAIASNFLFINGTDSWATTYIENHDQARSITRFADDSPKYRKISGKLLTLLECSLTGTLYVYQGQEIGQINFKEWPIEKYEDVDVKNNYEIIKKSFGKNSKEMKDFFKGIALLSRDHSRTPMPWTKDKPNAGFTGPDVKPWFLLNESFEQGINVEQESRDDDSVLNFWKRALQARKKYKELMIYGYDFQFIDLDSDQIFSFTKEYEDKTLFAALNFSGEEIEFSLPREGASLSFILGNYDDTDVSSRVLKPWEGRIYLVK

Turning to `COc1cc(-c2nc(-c3ccccc3)c(-c3ccccc3)n2-c2ccc(O)cc2)ccc1O` [IMI-13], the inhibition – broadly, the drop in the measured response relative to a control, in per cent – at 10 µM (pH 7, read-out: Inhibition (I%) 10 (μM)) is more than 100%. Also, the inhibition at 20 µM (pH 7, read-out: Inhibition (I%) 20 (μM)) was 99.28 ± 0.51%. Under “pH 7, read-out: Inhibition (I%) 30 (μM)”, the inhibition at 30 µM stood at 95.2 ± 1%. Besides, the inhibition at 40 µM (pH 7, read-out: Inhibition (I%) 40 (μM)) is 81.9 ± 1.3%. Moreover, for the setting “pH 7, read-out: Inhibition (I%) 50 (μM)”, the inhibition at 50 µM amounted to 26 ± 1.2%.
